# Results reported in patent publication US12233044B2, “Cannabidiol and chitosan compositions and methods of using the same” (priority 2017, dated 2025).
# Values joined by “and” are separate entries in the source; they are usually repeats but may differ in a detail not shown here. Equal entries are not always repeated.
# Columns and labels:
# [1] = Guinea pig induced dyslipidemia model, body weight gain; format: in vivo
# Procedure: The objective of this research was to examine the cholesterol blood levels of guinea pigs, fed ad libitum a high-level fat diet rich in lauric and myristic acids alone or in combination with various formulations.
# “Day 0” was initiation of the Study period, animals received regular guinea pig diet. Day 3 the animals were subjected to blood withdrawal and subsequently the first day of supplying the fattening diet. On day 11 chitosan diet was administered to the relevant group. On day 24 CBD diet and CBD chitosan diet were administered until day 27.
# Determination of individual body weights of animals was conducted once weekly during the entire study.
# [2] = system: Triglyceride levels in the serum; assay: Guinea pig induced dyslipidemia model, serum triglycerides; format: in vivo
# Procedure: The blood cholesterol and triglycerides were examined in male guinea pigs, following an oral administration of the various formulations in correlation to the Controlled group.
# Measurement of cholesterol, and Triglyceride levels in the serum were performed following a 7-10 day of exposure to the different diets.
# Day 3 all animals; Day 11 all animals; Day 24 all animals; Day 27 CBD, CNTL-fattening and CBD-chitosan group.
# The blood collection tubes (BD 367955) were specialized for serum separation, containing a clot activator and a gel which separates the cell content (pellet) from the serum (supernatant) after centrifugation. Blood samples of ˜0.5 mL/animal were collected into the pre-marked tubes (study code, animal number and date). At all times blood was collected under anesthesia: Ketamine 20-40 mg/kg & Diazepam 1-2 mg/kg IM. Blood collection of all animals was performed via the periorbital eye venous plexus puncture.
# Blood samples were left at room temperature for at least 45 minutes, and subsequently centrifuged ([…], 1790 g, 10 min/RT) for serum separation and left in the specialized tubes with the gel partitioning the separated serum and cell content. The samples were transferred as such to AML.
# Following serum separation, the samples were kept at 2-8° C. until transferred to AML, for blood lipid profile analysis (cholesterol, LDL, HDL and Triglyceride levels). Sample transfer was via wet ice packed in Styrofoam boxes and transferred within 1-2 hours from blood separation.
compound,measurement,setting,value
"C=C(C)[C@@H]1CCC(C)=C[C@H]1c1c(O)cc(CCCCC)cc1O [CBD, Cannabidiol]","Change in Weight by group, Mean","[1]; change in weight during treatment, group mean, N 15",58.8
same,"Mean difference, Change in Weight by group",[1]; contrast CBD - CHIT,34.5
same,"Mean difference, Change in Weight by group",[1]; contrast CNTL - CBD,6.0
same,"Mean difference, DELTA WEIGHT second phase",[1]; contrast CNTL - CBD,2.8
same,"DELTA WEIGHT, Second phase Group","[1]; individual animals, second phase treatment",108.00 and 133.00 and 157.00 and 130.00
same,"DELTA WEIGHT by Second phase Group, Mean","[1]; study initiation to after second phase treatment, group mean",132.0
same,"Mean difference, TG delta 27 D to 10 D",[2]; contrast CNTL - CBD CNTL,28.3
same,"TG delta 27 D to 10 D by group second phase, Mean",[2]; group mean,−33.0
same,Triglycerides lowering effect (in words),"[2]; guinea pig, in vivo",lower TG values
same,Difference in triglycerides versus CNTL group,[2]; significance,not significant
